Two compounds from patent US12636368B2, “Ionizable lipids for nucleic acid delivery” (Global Life Sciences Solutions Canada ULC, priority 2019, dated 2026) can be followed below.

One experiment has as its system primary human T cells. Kind of experiment: EPO ELISA after EPO mRNA LNP treatment of primary human T cells. It counts as cell-based. As to the method: Reagents were acquired from Quantikine, Minneapolis, MN. The assay was performed as directed on the Quantikine® IVD® ELISA Human Erythropoietin Immunoassay protocol. REF DEP00 Package Insert. Briefly; primary human T cells were isolated from fresh whole blood using a negative selection protocol and activated using a triple activator. Seven days post-activation, T cells were dosed with mRNA LNPs encoding EPO at 2 pg mRNA per 500,000 cells and N/P 10. Quantikine® Human Serum Controls were used. After 48 hours of treatment with mRNA LNPs the T cells were harvested and lysed for cytosolic EPO and media supernatant was sampled for secreted EPO. Table 5 includes the data of FIG. 6 as well as the fold increase of EPO for PNI 76 and 121 versus MC3.
For orientation: In an ELISA, binding on a coated surface is turned into a signal by an enzyme label.

For a further experiment, the system named is C57BL/6 mice. Kind of experiment: OVA mRNA LNP intramuscular immunization, anti OVA-IgG ELISA. The class given is in vivo. The settings on record: i.m., days 1 and 10. From the text: LNP with the composition LM02b were used to encapsulate OVA antigen encoded CleanCap® OVA WT mRNA [TriLink L7610] or CleanCap® OVA 5-moU mRNA [TriLink L7210]. A lipid mixture of Ionizable lipid, DOPE, Cholesterol, and PEG-DMG2000, all in ethanol, was mixed with a low PH buffered solution of OVA mRNA at an N/P ratio of 8 using a NanoAssemblr® Ignite™ microfluidic mixer. The LNP were filtered using the Amicon™ ultra filtration technique and characterized for Size, PDI and Encapsulation Efficiency. Size and PDI were measured using dynamic light scattering techniques, and nucleic acid encapsulation efficiency was calculated from the Quant-iT RiboGreen RNA assay. […]
All animals were handled according to the Institutional Animal Care and Use Committee ethics protocols. […] Aliquots of serum samples were thawed and analyzed at appropriate dilutions for OVA expression and for IgG measurements using standard ELISA techniques.
Anti OVA-IgG ELISA of serum samples: Sera from the immunized mice were collected at 2 weeks post second immunization. OVA-specific production of IgG in response to OVA-encoded mRNA in various LNPs were measured by ELISA as described supra. […] After 30 minutes of incubation, a stop solution of 2 N sulphuric acid was added and a plate reader was used to determine absorbance at 450 nm. […]

In the case of `CCCCC/C=C\C/C=C\CCCCCCCC(=O)O[C@@H]1[C@@H](OC(=O)CCCCCCC/C=C\C/C=C\CCCCC)CO[C@@H]1COC(=O)CCCN(C)C` (racemic) [PNI 121], the “EPO expression compared with MC3” value with primary human T cells (FIG. 6, N/P 10, 48 hours) is “higher than those containing MC3”. Also, the “EPO Fold Change Relative to MC3” value with primary human T cells (Table 5) is listed as 1.86. Moreover, the “EPO concentration (mIU/mL)” value with primary human T cells (Table 5, EPO mRNA LNPs, 2 pg mRNA per 500,000 cells, N/P 10, 48 hours) is reported as 1009.0 mIU/mL.

As for `CCCCC/C=C\C/C=C\CCCCCCCC(=O)O[C@@H]1[C@@H](OC(=O)CCCCCCC/C=C\C/C=C\CCCCC)CO[C@@H]1COC(=O)CCCN1CCCC1` (racemic) [PNI 539], the “immune response to OVA antigen loaded LNPs” value in the experiment with C57BL/6 mice was “effectively elicit an immune response similar to OVA antigen”.
